Like-named read-outs stand apart in the source and are kept apart here.
Tests used:
[1] = tested on: Key Broadleaf Weed and Crop Species; experiment: Post-emergent Test II herbicidal activity (Table 5); type: in vivo; conditions: post-emergence, 336 h, 14 days after application; for pest or weed control at 70 g/ha: application rate 70 g ai/ha
Description: (§1) Post-emergent Test II: Seeds or nutlets of the desired test plant species were planted in Sun Gro Metro-Mix® 360 planting mixture, which typically has a pH of 6.0 to 6.8 and an organic matter content of about 30 percent, in plastic pots with a surface area of 64 square centimeters. When required to ensure good germination and healthy plants, a fungicide treatment and/or other chemical or physical treatment was applied. The plants were grown for 7-21 d in a greenhouse with an approximate 15 h photoperiod which was maintained at about 23-29° C. during the day and 22-28° C. during the night. Nutrients and water were added on a regular basis and supplemental lighting was provided with overhead metal halide 1000-Watt lamps as necessary. The plants were employed for testing when they reached the first or second true leaf stage.
(§2) A weighed amount, determined by the highest rate to be tested, of each test compound was placed in a 25 mL glass vial and was dissolved in 4 mL of a 97:3 v/v mixture of acetone and DMSO to obtain concentrated stock solutions. […] The concentrated stock solutions obtained were diluted with 20 mL of an aqueous mixture containing acetone, water, isopropyl alcohol, DMSO. Atplus 411F crop oil concentrate, and Triton® X-155 surfactant in a 48.5:39:10:1.5:1.0:0.02 v/v ratio to obtain spray solutions containing the highest application rates. Additional application rates were obtained by serial dilution of 12 mL of the high rate solution into a solution containing 2 mL of 97:3 v/v mixture of acetone and DMSO and 10 mL of an aqueous mixture containing acetone, water, isopropyl alcohol, DMSO, Atplus 411F crop oil concentrate, and Triton X-155 surfactant in a 48.5:39:10:1.5:1.0:0.02 v/v ratio to obtain ½×, ¼×, ⅛× and 1/16× rates of the high rate. Compound requirements are based upon a 12 mL application volume at a rate of 187 liters per hectare (L/ha). Formulated compounds were applied to the plant material with an overhead Mandel track sprayer equipped with 8002E nozzles calibrated to deliver 187 L/ha over an application area of 0.503 square meters at a spray height of 18 inches (43 cm) above the average plant canopy height. Control plants were sprayed in the same manner with the solvent blank.
(§3) The treated plants and control plants were placed in a greenhouse as described above and watered by subirrigation to prevent wash-off of the test compounds. After 14 d, the condition of the test plants as compared with that of the untreated plants was determined visually and scored on a scale of 0 to 100 percent where 0 corresponds to no injury and 100 corresponds to complete kill.

[2] = tested on: Key Grass and Sedge Weeds as well as Grass Crops; experiment: Post-emergent Test II herbicidal activity (Table 6); type: in vivo; conditions: post-emergence, 336 h; for pest or weed control at 70 g/ha: application rate 70 g ai/ha; for pest or weed control at 140 g/ha: application rate 140 g ai/ha
Description: as §1, §2, §3

[3] = ABUTH: velvetleaf (Abutilon theophrasti), read-out: Visual Growth Reduction (%) 14 Days After Application, ABUTH
[4] = AMARE: redroot pigweed (Amaranthus retroflexus), read-out: Visual Growth Reduction (%) 14 Days After Application, AMARE
[5] = BRSNN: oilseed-rape, canola (Brassica napus), read-out: Visual Growth Reduction (%) 14 Days After Application, BRSNN
[6] = CHEAL: lambsquarters (Chenopodium album), read-out: Visual Growth Reduction (%) 14 Days After Application, CHEAL
[7] = EPHHL: wild poinsettia (Euphorbia heterophylla), read-out: Visual Growth Reduction (%) 14 Days After Application, EPHHL
[8] = HELAN: sunflower (Helianthus annuus), read-out: Visual Growth Reduction (%) 14 Days After Application, HELAN
[9] = VIOTR: wild pansy (Viola tricolor), read-out: Visual Growth Reduction (%) 14 Days After Application, VIOTR
[10] = Triticum aestivum, TRZSS (wheat), read-out: Visual Growth Reduction (%) 14 Days After Application, TRZSS
[11] = DIGSA: crabgrass (Digitaria sanguinalis), read-out: Visual Growth Reduction (%) 14 Days After Application, DIGSA
[12] = ECHCG: barnyardgrass (Echinochloa crus-galli), read-out: Visual Growth Reduction (%) 14 Days After Application, ECHCG
[13] = ORYSA: rice (Oryza sativa), read-out: Visual Growth Reduction (%) 14 Days After Application, ORYSA
[14] = SETFA: giant foxtail (Setaria faberi), read-out: Visual Growth Reduction (%) 14 Days After Application, SETFA
[15] = SORVU: grain sorghum (Sorghum vulgare), read-out: Visual Growth Reduction (%) 14 Days After Application, SORVU
[16] = ZEAMX: maize, corn (Zea mays), read-out: Visual Growth Reduction (%) 14 Days After Application, ZEAMX

SMILES | pest or weed control at 70 g/ha [1, 3] [%] | pest or weed control at 70 g/ha [1, 4] [%] | pest or weed control at 70 g/ha [1, 5] [%] | pest or weed control at 70 g/ha [1, 6] [%] | pest or weed control at 70 g/ha [1, 7] [%] | pest or weed control at 70 g/ha [1, 8] [%] | pest or weed control at 70 g/ha [1, 9] [%] | pest or weed control at 70 g/ha [2, 10] [%] | pest or weed control at 140 g/ha [2, 10] [%] | pest or weed control at 70 g/ha [2, 11] [%] | pest or weed control at 140 g/ha [2, 11] [%] | pest or weed control at 70 g/ha [2, 12] [%] | pest or weed control at 140 g/ha [2, 12] [%] | pest or weed control at 70 g/ha [2, 13] [%] | pest or weed control at 140 g/ha [2, 13] [%] | pest or weed control at 140 g/ha [2, 14] [%] | pest or weed control at 70 g/ha [2, 15] [%] | pest or weed control at 140 g/ha [2, 15] [%] | pest or weed control at 70 g/ha [2, 16] [%] | pest or weed control at 140 g/ha [2, 16] [%] | other results
COC(=O)c1nc(-c2ccc(C(F)(F)F)c(F)c2)nc(N)c1OC [Compound 26, methyl 6-amino-2-(3-fluoro-4-(trifluoromethyl)phenyl)-5-methoxypyrimidine-4-carboxylate] | 85 to 94 | 60 to 74 | 30 to 44 | 0 to 29 | 95 to 100 | 85 to 94 | 0 to 29 | 45 to 59 | 45 to 59 | 0 to 29 | 0 to 29 | 0 to 29 | 0 to 29 | 0 to 29 | 0 to 29 | 0 to 29 | 0 to 29 | 0 to 29 | 0 to 29 | 45 to 59 | pest or weed control at 140 g/ha ([1]; ABUTH: velvetleaf (Abutilon theophrasti), application rate 140 g ai/ha, read-out: Visual Growth Reduction (%) 14 Days After Application, ABUTH): 85 to 94%; pest or weed control at 140 g/ha ([1]; AMARE: redroot pigweed (Amaranthus retroflexus), application rate 140 g ai/ha, read-out: Visual Growth Reduction (%) 14 Days After Application, AMARE): 75 to 84%; pest or weed control at 140 g/ha ([1]; BRSNN: oilseed-rape, canola (Brassica napus), application rate 140 g ai/ha, read-out: Visual Growth Reduction (%) 14 Days After Application, BRSNN): 30 to 44%; pest or weed control at 140 g/ha ([1]; CHEAL: lambsquarters (Chenopodium album), application rate 140 g ai/ha, read-out: Visual Growth Reduction (%) 14 Days After Application, CHEAL): 0 to 29%; pest or weed control at 140 g/ha ([1]; EPHHL: wild poinsettia (Euphorbia heterophylla), application rate 140 g ai/ha, read-out: Visual Growth Reduction (%) 14 Days After Application, EPHHL): 95 to 100%; pest or weed control at 140 g/ha ([1]; HELAN: sunflower (Helianthus annuus), application rate 140 g ai/ha, read-out: Visual Growth Reduction (%) 14 Days After Application, HELAN): 85 to 94%; pest or weed control at 140 g/ha ([1]; VIOTR: wild pansy (Viola tricolor), application rate 140 g ai/ha, read-out: Visual Growth Reduction (%) 14 Days After Application, VIOTR): 0 to 29%; pest or weed control at 70 g/ha [2, 14]: 0 to 29%
COc1c(N)nc(-c2ccc(C(F)(F)F)c(F)c2)nc1C(=O)O [Compound 63] | 60 to 74 | 60 to 74 | 75 to 84 | 85 to 94 | 95 to 100 | 85 to 94 | 75 to 84 | 60 to 74 | 60 to 74 | 60 to 74 | 60 to 74 | 75 to 84 | 95 to 100 | 0 to 29 | 0 to 29 | 95 to 100 | 0 to 29 | 30 to 44 | 60 to 74 | 60 to 74 | pest or weed control at 140 g/ha ([1]; ABUTH: velvetleaf (Abutilon theophrasti), 140 g ai/ha, post-emergent, read-out: Visual Growth Reduction (%) 14 Days After Application ABUTH): 85 to 94%; pest or weed control at 140 g/ha ([1]; AMARE: redroot pigweed (Amaranthus retroflexus), 140 g ai/ha, post-emergent, read-out: Visual Growth Reduction (%) 14 Days After Application AMARE): 75 to 84%; pest or weed control at 140 g/ha ([1]; BRSNN: oilseed-rape, canola (Brassica napus), 140 g ai/ha, post-emergent, read-out: Visual Growth Reduction (%) 14 Days After Application BRSNN): 85 to 94%; pest or weed control at 140 g/ha ([1]; CHEAL: lambsquarters (Chenopodium album), 140 g ai/ha, post-emergent, read-out: Visual Growth Reduction (%) 14 Days After Application CHEAL): 95 to 100%; pest or weed control at 140 g/ha ([1]; EPHHL: wild poinsettia (Euphorbia heterophylla), 140 g ai/ha, post-emergent, read-out: Visual Growth Reduction (%) 14 Days After Application EPHHL): 95 to 100%; pest or weed control at 140 g/ha ([1]; HELAN: sunflower (Helianthus annuus), 140 g ai/ha, post-emergent, read-out: Visual Growth Reduction (%) 14 Days After Application HELAN): 85 to 94%; pest or weed control at 140 g/ha ([1]; VIOTR: wild pansy (Viola tricolor), 140 g ai/ha, post-emergent, read-out: Visual Growth Reduction (%) 14 Days After Application VIOTR): 95 to 100%

Reference: US9113629B2, “4-amino-6-(4-substituted-phenyl)-picolinates and 6-amino-2-(4-substituted-phenyl)-pyrimidine-4-carboxylates and their use as herbicides” (DOW AGROSCIENCES LLC, priority 2013, dated 2015)
